16 molecules from PMC12306736 (PLOS Genetics, 2025) can be followed below.

In data set [1] the test system is B. abortus. Format: cell-based, Brucella abortus.
Data set [2] relates to B. abortus. It is filed as cell-based.
Data set [3] concerns B. ovis. It is filed as cell-based, Brucella ovis.
Data set [4] deals with B. ovis. The experiment in a line: microbe, parasite or virus in culture. Format: cell-based, Brucella ovis. The settings on record: for IC50: Brucella ovis.
In data set [5] the test system is B. ovis. The experiment in a line: microbe, parasite or virus in culture. Format: cell-based, Brucella ovis. The settings on record: for IC50: Brucella ovis. This is another data set of the same source.
For data set [6], the system named is B. abortus. The experiment in a line: microbe, parasite or virus in culture. It is filed as cell-based. The settings on record: Brucella abortus, THP-1, 48 h, read-out: IC50, intracellular B. abortus in THP-1 cells.
In data set [7] the test system is B. abortus. It is filed as cell-based, Brucella abortus. This is another data set of the same source.
For data set [8], the system named is THP-1 macrophage-like cells. Format: cell-based, human.
Data set [9] has as its system B. ovis. Format: cell-based, Brucella ovis. This is another data set of the same source.
The test system of data set [10] is B. abortus. Format: cell-based, Brucella abortus. The source holds these as a separate data set.
In another data set the test system is THP-1 cells. The settings on record: human.
The subject of data set [11] is B. ovis. It is filed as cell-based, Brucella ovis. The source holds these as a separate data set.
Data set [12] deals with B. ovis. It is filed as cell-based, Brucella ovis. The source holds these as a separate data set.
Setting [13] is: THP-1, 48 h, read-out: IC50 for inhibiting intracellular growth of B. ovis.
Where [14] appears, read: THP-1, read-out: Intracellular IC50.
Where [15] appears, read: 48 h, read-out: Axenic B. ovis IC50 (Fig 1B).

Read-outs that look alike come from different tables or passages of the source.

With `CC1(C)S[C@@H]2[C@H](NC(=O)Cc3ccccc3)C(=O)N2[C@H]1C(=O)O` [Penicillin G], the “Increase in susceptibility of B. abortus on deletion of bepE (spot-titration on agar)” value in the data set with B. abortus [1] is on record as “approximately five”. Also, the “Differential growth of B. abortus WT and ΔbepE in Biolog phenotype microarray” value in the data set with B. abortus [2] was “markedly inhibiting ΔbepE but not WT growth”.
With `COC(=O)C1=C(C)NC(C)=C(C(=O)OC)C1c1ccccc1[N+](=O)[O-]` [nifedipine], the “Hit status in B. ovis intracellular screen” value in the data set with B. ovis [3] was “neither compound emerged as a hit”.
Take `COC(=O)C1=C(C)NC(C)=C(C(=O)OCCN(C)Cc2ccccc2)C1c1cccc([N+](=O)[O-])c1` (stereo not drawn) [Nicardipine]: the “Outcome of validation assays” value with B. ovis [4] is recorded as “inhibitors of intracellular replication that were not toxic to host cells”. The IC50 in the data set with B. ovis [4] (setting [13]) was found to be 2.3 µM. The IC50 with B. ovis [4] (setting [14]) turned out to be 2 µM. The “Effect on terminal optical density of axenic B. ovis” value in the data set with B. ovis [5] was “no effect on the terminal optical density at any concentration tested”. Further, in the data set on B. ovis [5] (setting [15]), the IC50 was greater than 25 µM. For the same molecule, the IC50 in the data set on B. ovis [5] (read-out: Axenic IC50) was greater than 50 µM. Moreover, the IC50 in the data set with B. abortus [6] came out at 4.4 µM. For the same molecule, in the data set on B. abortus [7], the “Sensitivity of WT B. abortus in axenic conditions” value is on record as “insensitive” and the “Sensitivity of ∆bepE B. abortus in axenic conditions” value is on record as “insensitive”. Also, in data set [8], the “Increase in intracellular calcium level” value is reported as 20–40%, the “Increase in intracellular manganese level” value is recorded as 20–40% and the “Other metal levels in THP-1 cells” value was “Most metal levels remained unchanged”. The “Growth of WT B. ovis in liquid culture” value in the data set on B. ovis [9] is on record as “modest lag”. The “Effect of bepE disruption on B. abortus sensitivity on solid media” value (“Effect of bepE disruption” for short) in the data set with B. abortus [1] is “did not affect sensitivity”. Moreover, in the data set on B. abortus [10], the “Effect of bepE deletion on B. abortus sensitivity in THP-1 cells” value is “did not alter sensitivity” and the “Wild-type B. abortus CFUs recovered from treated THP-1 cells compared to untreated controls” value is listed as “significantly fewer”. Also, in the data set with THP-1 cells, the midpoint of cytotoxicity, the CC50, lay at 49 µM and the “THP-1 host cell viability” value is given as “does not affect THP-1 host cell viability”.
In the case of `CC1(C)S[C@@H]2[C@H](NC(=O)C(C(=O)O)c3ccccc3)C(=O)N2[C@H]1C(=O)O` (stereo partly drawn) [carbenicillin], the “Sensitivity of wild-type B. ovis on TSA blood plates” value (“Sensitivity of wild-type B. ovis” below) with B. ovis [11] was “moderately sensitive”.
Consider `COCCOC(=O)C1=C(C)NC(C)=C(C(=O)OC/C=C/c2ccccc2)C1c1cccc([N+](=O)[O-])c1` (stereo not drawn) [Cilnidipine], for which the “Outcome of validation assays” value in the data set with B. ovis [4] is “inhibitors of intracellular replication that were not toxic to host cells”. Further, the IC50 with B. ovis [4] (setting [13]) is 2.5 µM; in the data set on B. ovis [4] (setting [14]) it was 2 µM; in the data set on B. ovis [5] (setting [15]), 5.09 µM; with B. ovis [5] (48 h, read-out: Axenic IC50, B. ovis) it was roughly 5 µM; in the data set with B. ovis [5] (read-out: Axenic IC50) it was 5 µM; in the data set with B. abortus [6], 13.5 µM. Moreover, in the data set on B. ovis [5], the “Concentrations giving complete growth inhibition of axenic B. ovis” value is no less than 10 µM. In the data set on B. abortus [7], the “Sensitivity of WT B. abortus in axenic conditions” value is listed as “insensitive”. In addition, the “Sensitivity of ∆bepE B. abortus in axenic conditions” value in the data set with B. abortus [7] is listed as “insensitive”. The “Growth of WT B. ovis in liquid culture” value in the data set on B. ovis [9] is “failed to grow over 72 h”. Also, the “Effect of bepE disruption” value in the data set on B. abortus [1] is “did not affect sensitivity”. Further, the “Effect of bepE deletion on B. abortus sensitivity in THP-1 cells” value in the data set on B. abortus [10] was “increase sensitivity”. Further, the “Axenic inhibition in high-throughput screen” value in the data set with B. ovis [12] is given as less than 35%. Also, the CC50 in the data set with THP-1 cells is greater than 50 µM. In addition, the “THP-1 host cell viability” value in the data set on THP-1 cells is reported as “does not affect THP-1 host cell viability”.
Consider `CCCCN(CCCC)CCC(O)c1cc2c(Cl)cc(Cl)cc2c2cc(C(F)(F)F)ccc12` (stereo not drawn) [Halofantrine], for which the results for the IC50 with B. ovis [4] (setting [14]) and with B. ovis [5] (read-out: Axenic IC50) were greater than 50 µM and 11 µM, respectively. The half-maximal cytotoxic concentration (CC50) with THP-1 cells is greater than 50 µM.
With `CC(=O)SCC(Cc1ccccc1)C(=O)NCC(=O)OCc1ccccc1` (stereo not drawn) [Racecadotril], the IC50 in the data set with B. ovis [4] (setting [14]) and in the data set on B. ovis [5] (read-out: Axenic IC50) was greater than 50 µM throughout. The CC50 in the data set on THP-1 cells was greater than 50 µM.
Take `O=C1CCc2ccc(OCCCCN3CCN(c4cccc(Cl)c4Cl)CC3)cc2N1` [Aripiprazole]: the midpoint of cytotoxicity with THP-1 cells, the CC50, lay at 12 µM.
As for `c1ccc(-c2ccc(C(c3ccccc3)n3ccnc3)cc2)cc1` (stereo not drawn) [Bifonazole], in the data set with B. ovis [4], the “Outcome of validation assays” value is “inhibitors of intracellular replication that were not toxic to host cells”. Moreover, the half-inhibitory concentration (IC50) was 14 µM with B. ovis [4] (setting [14]) and 4 µM with B. ovis [5] (read-out: Axenic IC50). In the data set with THP-1 cells, the CC50 is greater than 50 µM.
For `C[C@H](CCC(=O)NCCC[N+](C)(C)CCCS(=O)(=O)[O-])[C@H]1CC[C@H]2[C@@H]3[C@H](O)C[C@@H]4C[C@H](O)CC[C@]4(C)[C@H]3C[C@H](O)[C@]12C` [CHAPS], in the data set on B. ovis [11], the “Sensitivity of wild-type B. ovis” value is recorded as “highly sensitive”. The “Effect of bepE disruption” value with B. abortus [1] was “did not affect sensitivity”.
With `N[C@@H]1C[C@H]1c1ccccc1` (racemic) [Tranylcypromine], the IC50 in the data set on B. ovis [4] (setting [14]) and in the data set on B. ovis [5] (read-out: Axenic IC50) was greater than 50 µM in each case. The molecule also yielded a half-maximal cytotoxic concentration (CC50) with THP-1 cells greater than 50 µM.
As for `OCCN(CCO)c1nc(N2CCCCC2)c2nc(N(CCO)CCO)nc(N3CCCCC3)c2n1` [Dipyridamole], the IC50 in the data set with B. ovis [4] (setting [14]) and in the data set on B. ovis [5] (read-out: Axenic IC50) was greater than 50 µM throughout. This molecule returned a CC50 in the data set with THP-1 cells of 41 µM.
Consider `COc1ccc(CCN(C)CCCC(C#N)(c2ccc(OC)c(OC)c2)C(C)C)cc1OC` (stereo not drawn) [verapamil], for which the “Hit status in B. ovis intracellular screen” value in the data set on B. ovis [3] is given as “neither compound emerged as a hit”.
Turning to `CCCCCCCCCCCCOS(=O)(=O)[O-].[Na+]` [SDS, sodium dodecyl sulfate], the “Sensitivity of wild-type B. ovis” value in the data set with B. ovis [11] is on record as “highly sensitive”.
With `CCOc1ccc(NC(C)=O)cc1` [Phenacetin], the IC50 in the data set with B. ovis [4] (setting [14]) and in the data set on B. ovis [5] (read-out: Axenic IC50) was greater than 50 µM in each case. The molecule further gave a CC50 in the data set with THP-1 cells greater than 50 µM.
Regarding `COc1ccc(CN2CCN(C(c3ccc(F)cc3)c3ccc(F)cc3)CC2)c(OC)c1OC` [Lomerizine], in the data set with B. ovis [4], the “Outcome of validation assays” value is listed as “inhibitors of intracellular replication that were not toxic to host cells”. Further, the IC50 is 9 µM in the data set on B. ovis [4] (setting [14]) and greater than 50 µM with B. ovis [5] (read-out: Axenic IC50). The molecule further displayed a CC50 with THP-1 cells of 50 µM.

As usually defined, the IC50 is the midpoint of a concentration-inhibition curve. In general, CC50 refers to the concentration at which the toxic effect on the cells reaches its halfway point. Low readings indicate harm at low concentration, high ones better tolerance by the cells.
